Test results: patent US7208517B1, “Endothelin antagonists” (Abbott Labortories, priority 1994, dated 2007)
In brackets after ≈: the same amount, converted by molar mass.

Assays:
[1] = system: male subjects with hormone refractory prostate cancer; assay: Bone scan (bone scan index, skeletal involvement) of treated subjects; assay type: in vivo, human; conditions: versus placebo
Description: (§1) Studies were performed on male subjects with asymptomatic hormone refractory prostate cancer with rising PSA levels and on male subjects with symptomatic hormone refractory prostate cancer with rising PSA levels and pain. Subjects in the phase II studies had castrate levels of testosterone, either due to pharmacologic intervention, via leuprolide (Lupron®) or goserelin (Zoladex®), or via surgical castration. Subjects received ABT-627 or placebo. The following tests were conducted:
(§2) ABT-627 was formulated in 2.5 and 10 mg doses. An oral liquid formulation of ABT-627 was also prepared as follows: 1 mg/ml ABT-627, 50% glycerin, 14% alcohol, and water. Matching placebos were also provided.
Bone scans were performed with an NDA approved, Tc-99m phosphonate type radiopharmaceutical. This technique uses whole body format (skull to feet) so that anterior and posterior images are presented when using a 510 K-approved gamma camera. […] Each site was evaluated against a confidence score of 1 to 5, where 1 is negative, 2 is probably negative, 3 is equivocal, 4 is probably positive, and 5 is definitely positive. […] In addition, in a blinded study, a reference nuclear medicine physician interpreted the bone scans quantitatively as follows: the percent of involved bone was estimated for each individual bone, and the individual bone involvement was summed to calculate a global percent bone scan index (BSI). […]

[2] = system: male subjects with hormone refractory prostate cancer; assay: Interleukin-6 levels in serum of treated subjects; assay type: in vivo, human; conditions: subjects treated versus placebo
Description: as §1, §2
The effect of ABT-627 adminstration on Interleukin-6 levels in human serum samples was determined at Quintiles Laboratories using a sandwich immunoassay. Human serum samples and standards were incubated in microtiter plate wells coated with a monoclonal anti-IL-6 antibody, in the presence of a second monoclonal anti IL-6 antibody, linked to acetylcholinesterase. After incubation, the wells were washed, and the bound enzymatic activity was measured using a chromogenic substrate. The intensity of the color was proportional to the concentration of IL-6 in the sample or standard.

[3] = system: male subjects with hormone refractory prostate cancer; assay: Acid phosphatase levels in serum of treated subjects; assay type: in vivo, human; conditions: subjects treated with placebo or 2.5 mg or 10 mg
Description: as §1, §2
The enzyme Acid Phosphatase (ACP) catalyzes the hydrolysis of alpha-naphthyl phosphate to alpha-naphthol and inorganic phosphate. The alpha-naphthol immediately reacts with fast red TR salt to produce a yellow chromophore with an absorbance maximum at 405 nm. The rate of increase in absorbance at 405 nm is directly proportional to ACP activity in the sample. ACP activity was determined in the presence and absence of L-tartrate, the difference being attributed to prostatic acid phosphatase activity.
Briefly, a subject population was treated with a placebo or 2.5 mg or 10 mg of ABT-627. […] The mixture was incubated for another 5 minutes, and a second absorbance was read to provide a final absorbance. […]

[4] = pH-solubility profile: maximum solubility in aqueous media at varying pH; assay type: physicochemical; conditions: aqueous buffer
Description: Such increased aqueous solubility, coupled with the enhanced potency resulting from decreased protein binding, might make such compounds preferred for development as parenteral agents.

## CCCCCN(CCCC)C(=O)CN1C[C@H](c2ccc3c(c2)OCO3)[C@@H](C(=O)O)[C@@H]1c1ccc(OC)cc1 [ABT-627]
[1]
  proportion of total skeletal involvement by bone scan (FIG. 6): a decrease in the proportion of total skeketal involvement
[2]
  average change in baseline for Interleukin-6 (AUC, FIG. 1): the average change in baseline for Interleukin-6 was lower
[3]
  rate of increase and average change from baseline for acid phosphatase (AUC, FIG. 7): the rate of increase and the average change from baseline for acid phosphatase was decreased

## CCCCN(C(=O)CN1CC(c2ccc3c(c2)OCO3)C(C(=O)O)C1c1ccc(OC)cc1)c1cccnc1 (stereo not shown) [compound 531]
[4]; pH 5.1, about 25° C.
  solubility: > 3300 µg/mL
[4]; pH 6.5, about 25° C.
  solubility: > 3400 µg/mL
[4]; pH 7.1, about 25° C.
  solubility: 3540 µg/mL (≈ 6.66 mM)
[4]; pH 7.6, about 25° C.
  solubility: 3550 µg/mL (≈ 6.68 mM)
